# Laboratory results taken from patent publication US6667311B2, “Nitrogen substituted biaryl purine derivatives as potent antiproliferative agents” (Albany Molecular Research, Inc., priority 2001, dated 2003).
# “Also recorded” adds a separate entry of the source. Read-outs that look alike come from different tables or passages of the source.
# Key:
# HeLa S-3 cells = experiment: Inhibition of cell growth, HeLa cells (SRB); type: cell-based, human; settings: for IC50: Table 2, growth inhibition, 2 days, replicate experiments, read-out: CI50 HeLa Cells
# Description: Growth inhibition (GI50) values were measured with HeLa S-3 cells selected for growth on plastic. […] One day later, a control plate was fixed by addition of TCA to 5%. After five rinses with tap water the plate was air dried and stored at 4° C. Test compounds were added to the remaining plates at 10-fold dilutions between 0.01 and 100 μM. Two days later all plates were fixed as described above. Cells were then stained by the addition of 100μl per well of 0.4% sulforhodamine B (SRB) in 1% acetic acid for 30 min at 4° C. Wells were then quickly rinsed 5×with acetic acid (1%) and allowed to air dry. The SRB was then solubilized by the addition of 100 μl per well of unbuffered 10 mM Tris base. Dye was quantified by measuring absorbance at 490 nm on a Molecular Devices kinetic microplate reader. Growth at each inhibitor concentration relative to the untreated control was calculated according to the following equation: percent growth=100×(T−To)/(C−To), where T was the average optical density (OD) of the test wells after 2 days of treatment, To was the average OD of the wells in the control plate on day 0 and C was the average OD of untreated wells. Plots of percent growth versus inhibitor concentration were used to determine the GI50.
# [1] = test system: Tumor Cells in Hollow Fibers; experiment: NCI Hollow Fiber Assay; type: in vivo
# CyclinA/cdk2 = CyclinA/cdk2 (Homo sapiens, UniProt P24941); experiment: CyclinA/cdk2 protein kinase assay (histone H1 phosphorylation, immunopurified complex from HeLa); settings: read-out: IC50 CyclinA cdk2; Table 2; replicate experiments
# CyclinE/cdk2 = CyclinE/cdk2 (Homo sapiens, UniProt P24941); experiment: CyclinE/cdk2 protein kinase assay (histone H1 phosphorylation, immunopurified complex from HeLa); settings: read-out: IC50 CyclinE cdk2; Table 2; replicate experiments
# MALME-3M = experiment: NCI growth inhibition, MALME-3M; type: cell-based, human; settings: Homo sapiens; MALME-3M (Melanoma)
# SK-OV-3 = experiment: NCI growth inhibition, SK-OV-3; type: cell-based, human; settings: Homo sapiens; SK-OV-3 (Ovarian)
# CAKI-1 = experiment: NCI growth inhibition, CAKI-1; type: cell-based, human; settings: Homo sapiens; CAKI-1 (Renal)
# SK-MEL-5 = experiment: NCI growth inhibition, SK-MEL-5; type: cell-based, human; settings: Homo sapiens; SK-MEL-5 (Melanoma)
# NCI-H460 = experiment: NCI growth inhibition, NCI-H460; type: cell-based, human; settings: Homo sapiens; NCI-H460 (Non-Small Cell Lung)
# CyclinB/cdk1 = target: T1, CyclinB/cdk1 (Homo sapiens, UniProt P06493); experiment: CyclinB/cdk1 protein kinase assay (histone H1 phosphorylation, immunopurified complex from HeLa); type: biochemical; settings: Table 2; replicate experiments
# T1 construct: Monoclonal antibody against cyclinB (GNS1) is added to the supernatant; endogenous in cells
# T1 sequence (P06493 whole entry): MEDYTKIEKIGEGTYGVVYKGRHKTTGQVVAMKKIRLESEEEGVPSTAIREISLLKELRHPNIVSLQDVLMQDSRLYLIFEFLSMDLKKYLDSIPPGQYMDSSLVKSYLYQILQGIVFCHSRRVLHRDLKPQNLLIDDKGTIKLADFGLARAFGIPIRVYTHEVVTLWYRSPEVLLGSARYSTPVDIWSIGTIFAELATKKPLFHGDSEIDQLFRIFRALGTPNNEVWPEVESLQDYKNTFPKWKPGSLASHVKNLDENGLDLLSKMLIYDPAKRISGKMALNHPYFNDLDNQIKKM
# T1 sequence (P14635 whole entry partner): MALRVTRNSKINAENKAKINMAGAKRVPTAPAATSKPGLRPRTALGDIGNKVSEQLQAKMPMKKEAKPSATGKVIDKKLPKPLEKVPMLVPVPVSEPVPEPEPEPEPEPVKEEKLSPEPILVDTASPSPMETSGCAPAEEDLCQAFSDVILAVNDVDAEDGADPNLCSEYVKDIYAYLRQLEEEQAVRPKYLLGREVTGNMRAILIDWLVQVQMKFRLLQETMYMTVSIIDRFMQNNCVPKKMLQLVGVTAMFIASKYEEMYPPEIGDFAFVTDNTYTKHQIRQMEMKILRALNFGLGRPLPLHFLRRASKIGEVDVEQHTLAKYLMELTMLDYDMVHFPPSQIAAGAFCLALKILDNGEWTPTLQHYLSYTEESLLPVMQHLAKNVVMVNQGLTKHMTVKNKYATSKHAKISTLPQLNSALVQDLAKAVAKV
# Description: HeLa cells are blocked at the G1/S border by culturing in the presence of 2 mM thymidine for 20 h. The cells are then rinsed 3×in phosphate buffered saline and resuspended in regular medium. After 4 h of culture, the mitotic blocker, nocodazole is added to a final concentration of 75 ng/ml. […] The lysate is then clarified by centrifugation at 10,000×g for 10 min. The supernatant is collected and diluted 1:5 with Lysis Buffer. Monoclonal antibody against cyclinB (GNS1) is added to the supernatant to a final concentration of 5 μg/ml and shaken at 4° C. for 2 h. The immune complexes are then collected by the addition of 200 μl of protein agarose beads for 1 h. The beads are washed 4×in lysis buffer and 1×in kinase assay buffer.
# Duplicate assays were performed at each concentration.
smiles,measurement,setting,value
CC(=O)N[C@H]1CC[C@H](Nc2nc(NCc3ccc(-c4cccc(Cl)c4)cc3)c3ncn(C(C)C)c3n2)CC1 [Compound 110],IC50,HeLa S-3 cells,20 nM
CC(C)n1cnc2c(NCc3ccc(-c4ccccc4)nc3)nc(N[C@H]3CC[C@H](N)CC3)nc21 [Compound 86],Cell Types Killed,[1],"OVCAR 3, OVCAR 5, H522"
CC(C)n1cnc2c(NCc3ccc(-c4cccs4)cc3)nc(N[C@H]3CC[C@H](N)CC3)nc21 [Compound 111],IC50,CyclinA/cdk2,200 nM
same,IC50,CyclinE/cdk2,70 nM
CC(=O)N[C@H]1CC[C@H](Nc2nc(NCc3ccc(-c4ccsc4)nc3)c3ncn(C(C)C)c3n2)CC1 [Compound 124],Cell Types Killed,[1],"H23, H522, OVCAR-3,; also recorded: MDA-MB-435"
CC(=O)N[C@@H](C)CNc1nc(NCc2ccc(-c3ccccc3)cc2)c2ncn(C(C)C)c2n1 [Compound 108],IC50,CyclinA/cdk2,10000 nM
CC(=O)N[C@H]1CC[C@H](Nc2nc(NCc3ccc(-c4ccsc4)cc3)c3ncn(C(C)C)c3n2)CC1 [Compound 113],Cell Types Killed,[1],"H23, H522, OVCAR-3"
CC(C)n1cnc2c(NCc3ccc(-c4ccccn4)nc3)nc(N[C@H]3CC[C@H](N)CC3)nc21 [Compound 93],IC50,HeLa S-3 cells,300 nM
COc1cccc(-c2ccc(CNc3nc(N[C@H]4CC[C@H](NC(C)=O)CC4)nc4c3ncn4C(C)C)cc2)c1 [Compound 180],IC50,"HeLa S-3 cells; Homo sapiens, HeLa S3, 48 h",400 nM
CC(=O)N[C@H]1CC[C@H](Nc2nc(NCc3ccc(-c4cccc(C)c4)cc3)c3ncn(C(C)C)c3n2)CC1 [Compound 178],IC50,"HeLa S-3 cells; Homo sapiens, HeLa S3, 48 h",400 nM
CC(C)n1cnc2c(NCc3ccc(-c4ccsc4)cc3)nc(N[C@H]3CC[C@H](N)CC3)nc21 [Compound 12],IC50,HeLa S-3 cells,0.1 nM
same,GI50,MALME-3M,10 nM
same,GI50,SK-OV-3,18 nM
same,GI50,CAKI-1,38 nM
same,GI50,SK-MEL-5,14 nM
same,Cell Types Killed,[1],"H522, MDA-MB-435"
same,GI50,NCI-H460,15 nM
CC(=O)N[C@H]1CC[C@H](Nc2nc(NCc3ccc(-c4ccccn4)cc3)c3ncn(C(C)C)c3n2)CC1 [Compound 79],IC50,CyclinA/cdk2,10000 nM
CC[C@H](CO)Nc1nc(NCc2ccc(-c3ccccc3)cc2)c2ncn(C(C)C)c2n1 [Compound 73],IC50,HeLa S-3 cells,500 nM
CC(C)n1cnc2c(NCc3ccc(-c4ccccc4)cn3)nc(N[C@H]3CC[C@H](N)CC3)nc21 [Compound 229],IC50,"HeLa S-3 cells; Homo sapiens, HeLa S3, 48 h",400 nM
CC(C)n1cnc2c(NCc3ccc(-c4cccnc4)cc3)nc(N[C@H]3CC[C@H](N)CC3)nc21 [Compound 103],Cell Types Killed,[1],"OVCAR 3,OVCAR 5,; also recorded: H522, MDA-MB-435, SF295"
CC(=O)N[C@H]1CC[C@H](Nc2nc(NCc3ccc(-c4ccccn4)nc3)c3ncn(C(C)C)c3n2)CC1 [Compound 94],Cell Types Killed,[1],"COLO 205, OVCAR-3, H522"
"CC[C@H](CO)Nc1nc(NCc2cccnc2)c2ncn(C(C)C)c2n1 [Compound 127, reference compound]",GI50,"HeLa S-3 cells; Homo sapiens, HeLa S3, Table 3, reference compounds in comparison",7000 to 15000 nM
CC(C)n1cnc2c(NCc3ccc(-c4ccccn4)cc3)nc(N[C@H]3CC[C@H](N)CC3)nc21 [Compound 78],Cell Types Killed,[1],"H23, H522, OVCAR3, SF29"
CC(=O)N[C@H]1CC[C@H](Nc2nc(NCc3ccc(-c4ccc(C)cc4)cc3)c3ncn(C(C)C)c3n2)CC1 [Compound 97],IC50,CyclinB/cdk1,10000 nM
